Where two headings read alike, the source gives them in different places. Ends that are not written are not given here.
Experiments:
[1] = system: human red blood cells (HRBCs); details: read-out: Hemolysis toxicity (IC50); 1 h incubation
Procedure: To investigate the toxicity for normal human cells, all peptides were first screened against human red blood cells (HRBCs) using a hemolysis assay (Table 2 and Figure S4).
Hemolysis toxicity was tested against HRBCs. Blood samples, collected from the university hospital, were centrifuged twice at 700 × g and once at 1000 × g for 8 min at 4 °C to obtain erythrocyte pellets. Supernatants were always discarded, and pellets were resuspended in PBS (the same as the antimicrobial susceptibility assay). The final RBC suspension was 0.5% (v/v). Dilution series was prepared for concentrations 50 to 0.1 μM in a V-bottom 96-well plate, followed by the addition of RBC suspension. […] After 1 h of incubation at 37 °C, the well plate was centrifuged at 1000 × g for 10 min at 4 °C. The supernatant, collected in a flat-bottom well plate, was measured for OD415 using Tecan Microplate Reader Infinite F500.

[2] = Calcein dye leakage assay from LUVs; format: biochemical; details: for Calcein leakage (%) from LUVs at P:L 1:100 (mol/mol): pH 7.4; for Calcein leakage: even at a higher P:L ratio of 1:10
Text: To verify the pore-forming mechanism of action of the designed AMPs, we performed a calcein leakage assay. […] These lipid vesicles were used as simple mimics of bacterial membranes.[58] At the lowest tested peptide-to-lipid (P:L) ratio of 1:100 (mol/mol), three mutants (LP18, LP26, and LP40) caused >90% leakage, which was higher than the leakage caused by LP1 (87%). […] At the same concentration, LP23 caused leakage equivalent to that caused by LP1. Other mutants had lower leakage activity. At a higher P:L ratio of 1:50, all the abovementioned mutants caused 100% leakage, equivalent to that caused by LP1.
Pore-forming activity was tested using a dye leakage assay measuring the leakage of self-quenching fluorescent dye calcein from POPC:POPG (1:1 mol/mol) LUVs. DiD was mixed with lipids (1:500 mol/mol), and lipid film was created by evaporating chloroform, followed by 4 h of desiccation. Dried lipid film was dissolved in calcein buffer (35 mM calcein, 25 mM NaH2PO4·H2O and Na2HPO4·7H2O (3:7 mol/mol), 20 mM NaCl, and 1 mM EDTA). After 10 freeze–thaw cycles, the sample was extruded 50 times through a 100 nm pore size polycarbonate membrane filter. Free calcein in solution was removed using a HiTrap Desalting column. The concentrations of LUVs and peptides were adjusted to 0.02 and 0.1 mM, respectively, in PBS (25 mM NaH2PO4·H2O and Na2HPO4·7H2O (3:7 mol/mol), 100 mM NaCl, and 1 mM EDTA). The investigated P/L ratio was from 1:100 to 1:10 (mol/mol). Fluorescence intensity was measured using a HORIBA Scientific Jobin Yvon FluoroLog-3 Modular Spectrofluorometer (USA). Excitation and emission wavelengths were set to 495 and 520 nm, respectively. Triton X-100 10% caused 100% leakage used for normalization.

S. carnosus (CCM 4838T) = assay: microbe, parasite or virus in culture; format: cell-based, Staphylococcus carnosus; details: CCM 4838, 24 h; read-out: Antimicrobial activity (MIC) S. carnosus (CCM 4838T)
Text: (§1) To test antimicrobial activity, all peptides were initially screened, in a broth microdilution assay, against Gram-negative Escherichia coli (TOP10) and Gram-positive Staphylococcus carnosus (CCM 4838T) Biosafety Level 1 (BSL-1) bacteria (Table 2). […] Four other mutants (LP3, LP26, LP36, and LP39) had higher activity than LP1 against E. coli, and two mutants (LP23 and LP32) had higher activity than LP1 against S. carnosus. Six mutants (LP29, LP30, LP31, LP33, LP40, and LP43) were not active against one or both bacteria, even at the highest concentration tested (50 μM).
(§2) Antimicrobial activity against E. coli TOP10 and S. carnosus CCM 4838T was tested using the broth microdilution assay. Bacteria were cultured in MHA Petri dish for 24 h, subcultured in an MHB test tube for 6 h at 37 °C, and diluted to 10^6 CFU/mL (OD600). […] Dilution series was prepared for concentrations 50 to 0.1 μM in a flat-bottom 96-well plate, inoculated with bacteria, and incubated for 24 h at 37 °C. Growth control wells were free from test compounds, and sterility control wells were free from bacteria. Bacterial MIC was determined as the lowest concentration of test compounds that inhibited visible growth of bacteria (i.e., no visible turbidity).

E. coli (TOP10) = assay: Broth microdilution antimicrobial susceptibility assay; format: cell-based, Escherichia coli
Text: as §1, §2

[3] = Procedure: (§3) Cytotoxicity against human immortalized keratinocytes HaCaT, human alveolar basal epithelial A549 (derived from adenocarcinoma), and murine macrophages RAW 264.7 was tested using MTT [3-(4,5-dimethylthiazol-2-yl)-2,5-diphenyltetrazolium bromide] assay. Cells were cultured in Dulbecco’s modified Eagle’s medium (DMEM) containing 4 mM glutamine for HaCaT, or 2 mM glutamine for A549 and RAW 264.7 cells, supplemented with 10% heat-inactivated fetal bovine serum (FBS) and antibiotics (0.1 mg/mL penicillin and streptomycin). Nonessential amino acids (NEAA) and sodium pyruvate (1 mM) were added for macrophages. Cell lines were grown in 25 and 75 cm^2 flasks at 37 °C in a humidified atmosphere with 5% CO2. Cells were suspended in DMEM, containing glutamine, NEAA, and sodium pyruvate (as described above), supplemented with 2% FBS, plated in 96-well plates at 4 × 10^4 cells/well, and incubated at 37 °C in a 5% CO2 atmosphere. After overnight incubation, the medium was replaced with fresh DMEM supplemented with peptides at different concentrations: 2, 4, 8, 16, 32, 64, and 128 μM. Negative controls were cells without peptides. After 24 h of peptide treatment at 37 °C in a 5% CO2 atmosphere, medium was replaced with Hank’s buffer (136 mM NaCl, 0.34 mM Na2HPO4, 0.44 mM KH2PO4, 5.4 mM KCl, 4.1 mM NaHCO3, supplemented with 5.5 mM D-glucose) containing 0.5 mg/mL MTT. Mitochondrial dehydrogenases converted soluble yellow dye MTT to insoluble purple formazan. After 4 h of incubation, acidified isopropanol was added to dissolve formazan crystals and measured for OD570 using Tecan microplate reader Infinite M200 (Salzburg, Austria).
[4] = remark: listed apart in the source
Procedure: as §3

Ac-KKKKLKKILKKLFQFINQLDNQLQDIKQNK-NH2 [LP23]
IC50 [1]: > 50 µM | Calcein leakage (%) from LUVs at P:L 1:100 (mol/mol) [2]: 83.3 ± 5.4% | MIC (S. carnosus (CCM 4838T)): 0.4 µM | MIC (E. coli (TOP10); TOP10, 24 h): 6.3 µM

H-KKKKLKKILKKLFQFINQLDNQLQDFKQNK-OH [LP26]
Calcein leakage (%) from LUVs at P:L 1:100 (mol/mol) [2]: 91.6 ± 2.8% | MIC (S. carnosus (CCM 4838T)): 0.8 µM | MIC (E. coli (TOP10); 24 h, MHB): 0.4 µM

H-KKKKLKKILKKLFQFINQLDNQLQDIKQNK-OH [LP22]
Calcein leakage (%) from LUVs at P:L 1:100 (mol/mol) [2]: 68.0 ± 1.7% | MIC (S. carnosus (CCM 4838T)): 0.4 µM | MIC (E. coli (TOP10); 24 h, MHB): 0.2 µM

KKKKAKKAAKKAFQFANQADNQAQDAKQNK-NH2 [LP29]
IC50 [1]: > 50 µM | Calcein leakage (%) from LUVs at P:L 1:100 (mol/mol) [2]: 0% | Calcein leakage [2]: did not cause any leakage | MIC (S. carnosus (CCM 4838T)): > 50 µM | MIC (E. coli (TOP10); TOP10, 24 h): > 50 µM

KKKKLKKILKKLFNFINNLDNNLNDIKNNK-NH2 [LP37]
IC50 [1]: > 50 µM | Calcein leakage (%) from LUVs at P:L 1:100 (mol/mol) [2]: 70.3 ± 1.7% | MIC (S. carnosus (CCM 4838T)): 0.4 µM | MIC (E. coli (TOP10); TOP10, 24 h): 0.2 µM

KKKKLKKILKKLFQFIDQLINDLQNIKKKK-NH2 [LP20]
Calcein leakage (%) from LUVs at P:L 1:100 (mol/mol) [2]: 38.6 ± 3.5% | MIC (S. carnosus (CCM 4838T)): 1.6 µM | MIC (E. coli (TOP10); 24 h, MHB): 1.6 µM

KKKKLKKILKKLFQFINQLENQLQEIKQNK-NH2 [LP8]
Calcein leakage (%) from LUVs at P:L 1:100 (mol/mol) [2]: 29.2 ± 4.9% | MIC (S. carnosus (CCM 4838T)): 0.8 µM | MIC (E. coli (TOP10); 24 h, MHB): 0.8 µM

KKKKLKKILKKLFSFISSLDSSLSDIKSSK-NH2 [LP36]
IC50 [1]: > 50 µM | Calcein leakage (%) from LUVs at P:L 1:100 (mol/mol) [2]: 71.5 ± 7.4% | MIC (S. carnosus (CCM 4838T)): 0.8 µM | MIC (E. coli (TOP10); TOP10, 24 h): 0.4 µM

KKKKLKKILKKLFTFITTLDTTLTDIKTTK-NH2 [LP34]
IC50 [1]: > 50 µM | Calcein leakage (%) from LUVs at P:L 1:100 (mol/mol) [2]: 79.3 ± 2.4% | MIC (S. carnosus (CCM 4838T)): 0.8 µM | MIC (E. coli (TOP10); TOP10, 24 h): 0.8 µM

KKKKLKKILKKLIQLINQLDNQLQDIKQNK-NH2 [LP2]
IC50 [1]: > 50 µM | Calcein leakage (%) from LUVs at P:L 1:100 (mol/mol) [2]: 24.2 ± 2.6% | MIC (S. carnosus (CCM 4838T)): 1.6 µM | MIC (E. coli (TOP10); TOP10, 24 h): 6.3 µM

KKKKLKKILKKLWQWINQLDNQLQDIKQNK-NH2 [LP3]
Calcein leakage (%) from LUVs at P:L 1:100 (mol/mol) [2]: 29.6 ± 1.2% | MIC (S. carnosus (CCM 4838T)): 0.8 µM | MIC (E. coli (TOP10); 24 h, MHB): 0.4 µM

KKKKLKKLLKKLFQFLNQLDNQLQDLKQNK-NH2 [LP32]
IC50 [3]: < 2 µM | IC50 [1]: > 50 µM | Calcein leakage (%) from LUVs at P:L 1:100 (mol/mol) [2]: 56.3 ± 3.3% | MIC (S. carnosus (CCM 4838T)): 0.4 µM | MIC (E. coli (TOP10); TOP10, 24 h): 1.6 µM

KKKKLRRILRRLFQFINQLDNQLQDIKQNK-NH2 [LP38]
Calcein leakage (%) from LUVs at P:L 1:100 (mol/mol) [2]: 76.0 ± 3.3% | MIC (S. carnosus (CCM 4838T)): 0.4 µM | MIC (E. coli (TOP10); 24 h, MHB): 0.2 µM

KKKKMKKMMKKMFQFMNQMDNQMQDMKQNK-NH2 [LP30]
IC50 [1]: > 50 µM | Calcein leakage (%) from LUVs at P:L 1:100 (mol/mol) [2]: 21.9 ± 2.5% | MIC (S. carnosus (CCM 4838T)): 12.5 µM | MIC (E. coli (TOP10); TOP10, 24 h): > 50 µM

KKKKVKKVVKKVFQFVNQVDNQVQDVKQNK-NH2 [LP31]
IC50 [1]: > 50 µM | Calcein leakage (%) from LUVs at P:L 1:100 (mol/mol) [2]: 0% | Calcein leakage [2]: ≤ 20% | MIC (S. carnosus (CCM 4838T)): > 50 µM | IC50 [4]: > 128 µM | MIC (E. coli (TOP10); TOP10, 24 h): > 50 µM

KNQNLDDILNQLFQFINQLKNQLQKIKKKK-NH2 [LP43]
IC50 [1]: > 50 µM | Calcein leakage (%) from LUVs at P:L 1:100 (mol/mol) [2]: 64.2 ± 4.6% | MIC (S. carnosus (CCM 4838T)): 0.8 µM | MIC (E. coli (TOP10); TOP10, 24 h): > 50 µM

RRRRLKKILKKLFQFINQLDNQLQDIRQNR-NH2 [LP39]
Calcein leakage (%) from LUVs at P:L 1:100 (mol/mol) [2]: 65.5 ± 4.2% | MIC (S. carnosus (CCM 4838T)): 0.8 µM | MIC (E. coli (TOP10); 24 h, MHB): 0.4 µM
